Measured values taken from paper PMC10043390, “Novel 2-substituted-5-(4-chloro-2-phenoxy)phenyl-1,3,4-oxadiazole derivatives, ligands of GABAA/benzodiazepine receptor complex: Design, synthesis, radioligand binding assay, and pharmacological evaluation” (EXCLI Journal, 2023).
“And” between values parts separate entries of the source, which are not always exact repeats. Identical values can stand only once. Like-named read-outs stand apart in the source and are kept apart here.

Experiments:
[1] = biological target: benzodiazepine receptor of rat brains; assay: Radioligand receptor binding assay ([3H]-flumazenil competitive binding); details: for Ki: [3H]-flumazenil competitive binding; for Specific binding of [3H]flumazenil: mean ± SEM, n=3; for IC50: reduction of specific binding of [3H]-flumazenil by 50 %, triplicates, 30 °C, 35 min
Procedure: All of the binding assays were performed in triplicates in a total volume of 500 µL at 30 °C for 35 min (Ahmadi et al., 2013[1]).
(§1) Kd and Bmax in radioligand binding assay were calculated by non-linear regression analysis of the saturation and competitive curve data (Program Prism, Graph Pad, San Diego, CA). The IC50s of the novel compounds in binding studies were determined using […]. […] In PTZ and MES tests, the data were presented as a mean with 95% confidence intervals. In the rest of the pharmacological evaluations, one-way ANOVA with Tukey's HSD post-hoc test was used. All the data were presented as mean ± SEM and P<0.05 was considered statistically significant.

male NMRI albino mice [2] = assay: Maximal electroshock (MES) test; assay type: in vivo
Procedure: (§2) To assess the anticonvulsant activity of the novel compound 6a, we used PTZ-induced convulsion and MES tests (Guerrini et al., 2008[10]; Lankau et al., 2007[13]). In both models, the ability of the novel compound to protect mice against induced seizures was evaluated. Animals were closely observed for 30 minutes after injection of the lethal dose of PTZ (100 mg/kg) and the number of dead mice after convulsion was reported. In the MES test, each subject was observed closely and the incidence of hind limb tonic extension (HLTE) in the subjects after application of MES (60 Hz, 37.2 mA, and 0.25 s) was reported.
as §1

male NMRI albino mice [3] = assay: Pentobarbital-induced sleep test; assay type: in vivo; details: for Sleeping time: pentobarbital 40 mg/kg i.p., raw data of single animals
Text: The duration of the loss of the righting reflex was considered as the sleeping time. […] For prevention of hypothermia during the experiment, animals were placed on an electric blanket (Khoramjouy et al., 2021[11]).

male NMRI albino mice [4] = details: for latency of entrance to the dark compartment: testing day, raw data of single animals
Procedure: For the mice to get adapted to the lab environment, we transferred them to the lab 60 minutes before the tests started. Mice were randomly selected for all the experimental groups and each subject was tested only once for the pharmacological evaluations.
Distilled water was used as a solvent (vehicle) of PTZ and pentobarbital. Both, PTZ and pentobarbital were injected i.p. 5 ml/kg.
The passive avoidance cage (Malek Teb Co., Tehran) consists of two different compartments separated by a guillotine door. One of the compartments was black and dark while the other one was white and lighted. For the training trial, each mouse was placed in the white and light compartment and facing away from the guillotine door for 30 seconds. Next, the guillotine door was opened and the mouse was able to freely enter the black and dark compartment. When the mouse entered the black and dark compartment with four paws, it received an electric unpleasant stimulus (0.5 mA, 2 seconds) through the grid floor. On the testing day (after 24 hours), we placed the mouse in the lighted compartment and there was no electrical stimulus. We reported the latency to enter the black and dark compartment while the guillotine door was open.

male NMRI albino mice [5] = assay: Elevated plus-maze test; assay type: in vivo; details: for % duration in close arms / % duration in open arms: raw data of single animals
Procedure: The elevated plus-maze device was made up of Plexiglas, and it contained two open arms (30×5×0.5 cm) and two closed arms (30×5×35 cm) with an open roof. They were arranged so that the open arms were opposite to […]. The entire maze was elevated at a height of 1 meter. The mice were individually placed in the central square of the maze (5×5 cm) where all four arms were connected together after 30 minutes of intraperitoneal (i.p) administration of the test compounds. The time spent in the open and closed arms was recorded.

male NMRI albino mice [6] = assay: PTZ-induced lethal convulsion test; assay type: in vivo
Procedure: as §2, §1

[7] = doses of 5 and 10 mg/kg, over 10 minutes

O=C(Nc1ccccn1)c1nnc(-c2ccc(Cl)cc2Oc2ccccc2)o1 [6b, 5-(4-chloro-2-phenoxyphenyl)-N-(pyridin-2-yl)-1,3,4-oxadiazole-2-carboxamide]
melting point: 198 to 200 °C
Ki [1]: 2.35 nM
Specific binding of [3H]flumazenil ([1]; log[L] -7.0): 0.2333±0.0148 cpm
Specific binding of [3H]flumazenil ([1]; log[L] -8.0): 0.3733±0.0223 cpm
Specific binding of [3H]flumazenil ([1]; log[L] -8.5): 0.4267±0.0090 cpm
Specific binding of [3H]flumazenil ([1]; log[L] -9.0): 0.5233±0.0180 cpm
Specific binding of [3H]flumazenil ([1]; log[L] -9.5): 0.5467±0.0068 cpm
Specific binding of [3H]flumazenil ([1]; log[L] -10.0): 0.5900±0.0118 cpm
Specific binding of [3H]flumazenil ([1]; log[L] -11.0): 0.6433±0.0122 cpm
IC50 [1]: 3.84 ± 0.1 nM

O=C(NC1CCCCC1)c1nnc(-c2ccc(Cl)cc2Oc2ccccc2)o1 [6f, 5-(4-chloro-2-phenoxyphenyl)-N-cyclohexyl-1,3,4-oxadiazole-2-carboxamide]
melting point: 132 to 133 °C
Ki [1]: 1.53 nM
Specific binding of [3H]flumazenil ([1]; log[L] -7.0): 0.2133±0.0272 cpm
Specific binding of [3H]flumazenil ([1]; log[L] -8.0): 0.3533±0.0189 cpm
Specific binding of [3H]flumazenil ([1]; log[L] -8.5): 0.4000±0.0118 cpm
Specific binding of [3H]flumazenil ([1]; log[L] -9.0): 0.4533±0.0148 cpm
Specific binding of [3H]flumazenil ([1]; log[L] -9.5): 0.5500±0.0156 cpm
Specific binding of [3H]flumazenil ([1]; log[L] -10.0): 0.6133±0.0296 cpm
Specific binding of [3H]flumazenil ([1]; log[L] -11.0): 0.5933±0.0207 cpm
IC50 [1]: 2.51 ± 0.13 nM

Cc1ccnc(NC(=O)c2nnc(-c3ccc(Cl)cc3Oc3ccccc3)o2)c1 [6d, 5-(4-chloro-2-phenoxyphenyl)-N-(4-methylpyridin-2-yl)-1,3,4-oxadiazole-2-carboxamide]
melting point: 188.2 to 189.1 °C
Ki [1]: 0.88 nM
Specific binding of [3H]flumazenil ([1]; log[L] -7.0): 0.3000±0.0059 cpm
Specific binding of [3H]flumazenil ([1]; log[L] -8.0): 0.3100±0.0102 cpm
Specific binding of [3H]flumazenil ([1]; log[L] -8.5): 0.3767±0.0090 cpm
Specific binding of [3H]flumazenil ([1]; log[L] -9.0): 0.4467±0.0207 cpm
Specific binding of [3H]flumazenil ([1]; log[L] -9.5): 0.5367±0.0122 cpm
Specific binding of [3H]flumazenil ([1]; log[L] -10.0): 0.5700±0.0156 cpm
Specific binding of [3H]flumazenil ([1]; log[L] -11.0): 0.5733±0.0207 cpm
IC50 [1]: 1.44 ± 0.09 nM

O=C(NN1CCOCC1)c1nnc(-c2ccc(Cl)cc2Oc2ccccc2)o1 [6e, 5-(4-chloro-2-phenoxyphenyl)-N-morpholino-1,3,4-oxadiazole-2-carboxamide]
melting point: 159 to 161 °C
Ki [1]: 0.95 nM
Specific binding of [3H]flumazenil ([1]; log[L] -7.0): 0.2900±0.0059 cpm
Specific binding of [3H]flumazenil ([1]; log[L] -8.0): 0.3067±0.0090 cpm
Specific binding of [3H]flumazenil ([1]; log[L] -8.5): 0.3600±0.0060 cpm
Specific binding of [3H]flumazenil ([1]; log[L] -9.0): 0.5867±0.0090 cpm
Specific binding of [3H]flumazenil ([1]; log[L] -9.5): 0.6033±0.0189 cpm
Specific binding of [3H]flumazenil ([1]; log[L] -10.0): 0.6667±0.0148 cpm
Specific binding of [3H]flumazenil ([1]; log[L] -11.0): 0.6967±0.0148 cpm
IC50 [1]: 1.55 ± 0.1 nM

Cc1cccc(NC(=O)c2nnc(-c3ccc(Cl)cc3Oc3ccccc3)o2)n1 [6c, 5-(4-chloro-2-phenoxyphenyl)-N-(6-methylpyridin-2-yl)-1,3,4-oxadiazole-2-carboxamide]
melting point: 183.2 to 184.3 °C
Ki [1]: 0.76 nM
Specific binding of [3H]flumazenil ([1]; log[L] -7.0): 0.3000±0.0059 cpm
Specific binding of [3H]flumazenil ([1]; log[L] -8.0): 0.3100±0.0102 cpm
Specific binding of [3H]flumazenil ([1]; log[L] -8.5): 0.3767±0.0090 cpm
Specific binding of [3H]flumazenil ([1]; log[L] -9.0): 0.4467±0.0207 cpm
Specific binding of [3H]flumazenil ([1]; log[L] -9.5): 0.5367±0.0122 cpm
Specific binding of [3H]flumazenil ([1]; log[L] -10.0): 0.5700±0.0156 cpm
Specific binding of [3H]flumazenil ([1]; log[L] -11.0): 0.5733±0.0207 cpm
IC50 [1]: 1.25 ± 0.09 nM

O=C(Nc1ccccc1)c1nnc(-c2ccc(Cl)cc2Oc2ccccc2)o1 [6a, 5-(4-chloro-2-phenoxyphenyl)-N-phenyl-1,3,4-oxadiazole-2-carboxamide]
anticonvulsant activity in presence of flumazenil (male NMRI albino mice [2]; MES test, flumazenil 10 mg/kg): can antagonize the anticonvulsant activity
ED50 (male NMRI albino mice [2]; Mus musculus, ip, i.p. 30 min before MES (60 Hz, 37.2 mA, 0.25 s), HLTE, mean with 95% confidence intervals): 27.8 mg/kg
Sleeping time (male NMRI albino mice [3]; 1.25 mg/kg i.p.): 26 min and 38 min and 39 min and 46 min and 28 min and 20 min and 24 min and 32 min
Sleeping time (male NMRI albino mice [3]; 5 mg/kg i.p.): 48 minute and 44 minute and 50 minute (2×) and 43 minute and 57 minute and 40 minute and 56 minute
Sleeping time (male NMRI albino mice [3]; 10 mg/kg + Flumazenil (10 mg/kg)): 43 minute (2×) and 34 minute (2×) and 27 minute (2×) and 32 minute and 29 minute
Sleeping time (male NMRI albino mice [3]; 10 mg/kg i.p.): 53 minute and 64 minute and 47 minute (2×) and 43 minute and 40 minute and 55 minute and 49 minute
effect on sleeping time (male NMRI albino mice [3]; dose of 10 and 5 mg/kg, P<0.001): increased the sleeping time
hypnotic effect in presence of flumazenil (male NMRI albino mice [3]; with flumazenil 10 mg/kg, P<0.001): prevented by flumazenil
Ki [1]: 0.44 nM
Specific binding of [3H]flumazenil ([1]; log[L] -7.0): 0.3167±0.0378 cpm
Specific binding of [3H]flumazenil ([1]; log[L] -8.0): 0.4000±0.0412 cpm
Specific binding of [3H]flumazenil ([1]; log[L] -8.5): 0.4200±0.0102 cpm
Specific binding of [3H]flumazenil ([1]; log[L] -9.0): 0.4667±0.0090 cpm
Specific binding of [3H]flumazenil ([1]; log[L] -9.5): 0.5100±0.0156 cpm
Specific binding of [3H]flumazenil ([1]; log[L] -10.0): 0.5800±0.0156 cpm
Specific binding of [3H]flumazenil ([1]; log[L] -11.0): 0.6267±0.0034 cpm
IC50 [1]: 0.73 ± 0.17 nM
latency of entrance to the dark compartment (male NMRI albino mice [4]; 1.25 mg/kg i.p.): 320 second and 380 second and 393 second and 467 second and 480 second (2×) and 420 second (2×)
latency of entrance to the dark compartment (male NMRI albino mice [4]; 5 mg/kg i.p.): 480 second (2×) and 440 second and 344 second and 343 second and 380 second and 407 second and 251 second
latency of entrance to the dark compartment (male NMRI albino mice [4]; 10 mg/kg i.p.): 320 s and 460 s and 407 s and 230 s and 400 s and 420 s and 480 s and 326 s
effect on latency to enter the dark compartment (male NMRI albino mice [4]; doses of 1.25, 2.5, 5, and 10 mg/kg): did not show any significant effect
% duration in close arms (male NMRI albino mice [5]; 1.25 mg/kg i.p.): 65.00% (2×) and 67.00% and 56.00% and 60.00% and 53.00% and 64.00% and 59.00%
% duration in open arms (male NMRI albino mice [5]; 1.25 mg/kg i.p.): 35.00% (2×) and 33.00% and 44.00% and 40.00% and 47.00% and 36.21% and 41.00%
% duration in close arms (male NMRI albino mice [5]; 5 mg/kg i.p.): 48.50% (2×) and 44.54% and 44.40% and 43.48% and 38.16% and 47.65% and 51.65%
% duration in open arms (male NMRI albino mice [5]; 5 mg/kg i.p.): 51.49% (2×) and 55.45% and 55.59% and 56.51% and 61.83% and 52.34% and 48.34%
% duration in close arms (male NMRI albino mice [5]; 10 mg/kg i.p.): 42.44% and 46.28% and 47.65% and 43.17% and 37.57% and 45.37% and 41.04% and 26.78%
% duration in open arms (male NMRI albino mice [5]; 10 mg/kg i.p.): 57.55% and 53.71% and 52.34% and 56.82% and 62.42% and 54.62% and 58.96% and 73.22%
effect on close arm time (CAT) (male NMRI albino mice [5]; [7]): decrease the close arm time
effect on open arm time (OAT) (male NMRI albino mice [5]; [7]): increase the open arm time
ED50 (male NMRI albino mice [6]; Mus musculus, i.p. 30 min before PTZ 100 mg/kg, mean with 95% confidence intervals): 72 mg/kg
anticonvulsant activity in presence of flumazenil (male NMRI albino mice [6]; PTZ test, flumazenil 10 mg/kg): can antagonize the anticonvulsant activity
